One assay deals with T1, His-hSHIP1 enzyme (Homo sapiens, UniProt Q92835).
T1 sequence (Q92835 1-1189): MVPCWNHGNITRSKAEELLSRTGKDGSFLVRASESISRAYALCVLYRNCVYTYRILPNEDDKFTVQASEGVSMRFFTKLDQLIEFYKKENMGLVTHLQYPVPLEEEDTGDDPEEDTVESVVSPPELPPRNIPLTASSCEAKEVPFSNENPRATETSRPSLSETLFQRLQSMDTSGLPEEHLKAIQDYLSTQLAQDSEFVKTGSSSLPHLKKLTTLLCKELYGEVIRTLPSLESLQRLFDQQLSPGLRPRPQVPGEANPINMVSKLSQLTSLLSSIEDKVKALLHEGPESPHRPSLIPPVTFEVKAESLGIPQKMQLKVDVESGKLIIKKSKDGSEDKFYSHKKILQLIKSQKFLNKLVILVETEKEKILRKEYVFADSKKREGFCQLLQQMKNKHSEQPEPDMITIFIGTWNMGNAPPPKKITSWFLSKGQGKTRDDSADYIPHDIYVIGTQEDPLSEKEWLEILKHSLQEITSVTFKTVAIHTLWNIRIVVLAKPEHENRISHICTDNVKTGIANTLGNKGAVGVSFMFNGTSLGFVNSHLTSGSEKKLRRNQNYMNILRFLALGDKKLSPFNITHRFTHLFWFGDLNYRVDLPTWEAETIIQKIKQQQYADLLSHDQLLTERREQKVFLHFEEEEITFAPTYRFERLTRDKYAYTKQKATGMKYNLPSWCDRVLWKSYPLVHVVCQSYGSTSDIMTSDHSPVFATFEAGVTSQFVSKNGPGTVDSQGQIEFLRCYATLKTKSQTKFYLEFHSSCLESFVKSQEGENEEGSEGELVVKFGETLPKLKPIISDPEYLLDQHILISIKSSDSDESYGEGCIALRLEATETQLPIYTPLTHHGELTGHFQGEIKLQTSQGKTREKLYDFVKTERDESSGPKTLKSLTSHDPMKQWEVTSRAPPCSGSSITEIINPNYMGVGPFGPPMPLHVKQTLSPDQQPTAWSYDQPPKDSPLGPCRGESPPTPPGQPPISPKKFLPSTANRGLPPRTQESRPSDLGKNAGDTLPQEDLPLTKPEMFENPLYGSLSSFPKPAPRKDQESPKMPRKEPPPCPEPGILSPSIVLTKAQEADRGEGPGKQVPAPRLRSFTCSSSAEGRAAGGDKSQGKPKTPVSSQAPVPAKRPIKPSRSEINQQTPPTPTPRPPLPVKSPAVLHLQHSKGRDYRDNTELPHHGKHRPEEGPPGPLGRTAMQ
The experiment in a line: His-hSHIP1 phosphatase activity assay (IP4 substrate, Biomol Green). Type of assay: biochemical. Conditions: percentage increase relative to background; concentrations ≦300 μM. How it is done:
Test compounds were dissolved in 95% ethanol to form stock solutions. Before screening, the stock solutions were diluted with Phosphatase Assay Buffer (20 mM Tris-HCL, 10 mM MgCl2 pH 7.5, 0.02% Tween 20) to form working assay solutions that contained 10% ethanol. The assay was carried out on 96-well microtiter plates using a modified procedure of that reported by Ong et al., Blood 110, 1942-1949, 2007 and Yang et al., Org Lett 7, 1073-1076, 2005, both of which references are incorporated herein by reference in their entirety.
Each reaction contained 5 μL of His-hSHIP1 enzyme (15-20 ng), 10 μL of the substrate, 1,3,4,5-inositol tetrakisphosphate (IP4; 50 μM final), 5 μL of Phosphatase Assay Buffer, and 5 μL of test compound at various concentrations in 10% ethanol (0-300 μM final). Control blanks were also prepared by replacing His-hSHIP1 enzyme, IP4, or test compounds with Phosphatase Assay Buffer. After adding the reaction components in a 96-well microtiter plate on ice, the reaction was mixed by briefly shaking the plate vigorously. The reaction was then incubated at 37° C. for 15 min with gentle shaking followed by addition of 100 μL of Biomol Green Reagent (BIOMOL, PA, USA) to terminate the reaction. The free phosphate released from IP4 by His-hSHIP1 bound to the Biomol Green Reagent, turning the solution green in colour. After incubating the mixture for 20 min at room temperature for colour development, the absorbance was read with a SpectraMax Plus 96-well plate reader (Molecular Devices, Sunnyvale, Calif., USA) at a wavelength of 650 nm.
Percent (%) activation in Table 2 is expressed as a percentage increase relative to background. Scoring is expressed as follows: + (<50%); ++ (≧50% but <65%); +++ (≧65%).

In a further assay the test system is OPM2 cells. The assay can be described thus: Inhibition of OPM2 proliferation (BrdU ELISA). Type of assay: cell-based. Conditions: Homo sapiens, OPM-2, 72 hours, read-out: Scoring: % inhibition of OPM2 proliferation. How it is done:
Test compounds were dissolved in 100% DMSO to form stock solutions. Prior to screening, the stock solutions were diluted with complete media (RPMI 1640 containing 10% fetal calf serum, 2 mM L-glutamine and 50 U/mL each of penicillin and streptomycin) to form working assay solutions that contain 0.2% DMSO. The assay was initiated by adding 30,000 OPM2 cells (in 50 μL) to 50 μL of representative compounds at concentrations ranging from 0.03 to 30 μM. The cells were incubated for 72 hours in a humidified CO2 incubator with the addition of 10 μM BrdU for the final 6 hours according to the directions from the Roche BrdU Cell Proliferation ELISA kit used to detect proliferation (Roche, Cat. No. 11 647 229 001). OPM2 cells incubated in 0.1% DMSO in complete media were used as a negative control and the PI3Kα Inhibitor 2 (3-[4-(4-morpholinyl)thieno[3,2-d]pyrimidin-2-yl-phenol, Cayman Chemical, Cat. No. 10010177) was used as a positive control for inhibition of proliferation. At the end of the incubation, the plate containing the labeled cells was centrifuged, the supernatant removed and the cell pellets dried at 60° C. for 1 hour and stored at 4° C. until further analysis. Analysis of BrdU incorporation was done according to the manufacturer's instructions.

Where only a bound is given, the exact number is not on record here.

Turning to `CC1(C)CCC[C@]2(C)[C@H]3CS(=O)(=O)c4cc(C(=O)N5CCNCC5)cc(O)c4[C@]3(C)CC[C@@H]12` [compound 102, (1R,10R,11S,16S)-3-hydroxy-1,11,15,15-tetramethyl-5-[(piperazin-1-yl)carbonyl]-8λ^6-thiatetracyclo[8.8.0.0^2,7.0^11,16]-octadeca-2,4,6-triene-8,8-dione], the “Scoring: percent (%) activation of His-hSHIP1 enzyme” value (shortened to “Scoring: percent (%) activation”) at His-hSHIP1 enzyme was “+ (<50%)”. The inhibition at 30 µM in the assay on OPM2 cells was at least 75%.
For `COC(=O)CNC(=O)c1cc(O)c2c(c1)S(=O)(=O)C[C@@H]1[C@@]3(C)CCCC(C)(C)[C@@H]3CC[C@@]21C` [compound 92, methyl 2-{[(1R,10R,11S,16S)-3-hydroxy-1,11,15,15-tetramethyl-8,8-dioxo-8λ^6-thiatetracyclo[8.8.0.0^2,7.0^11,16]octadeca-2,4,6-trien-5-yl]formamido}acetate], the “Scoring: percent (%) activation” value on His-hSHIP1 enzyme is reported as “+ (<50%)”. Also, in the assay with OPM2 cells, the inhibition at 30 µM was at least 75%.
The corresponding values for `CC1(C)CCC[C@]2(C)[C@H]3CSc4cc(O)cc(C#N)c4[C@]3(C)CC[C@@H]12` [compound 78, (1R,10R,11S,16S)-5-hydroxy-1,11,15,15-tetramethyl-8-thiatetracyclo[8.8.0.0^2,7.0^11,16]octadeca-2,4,6-triene-3-carbonitrile] are “+ (<50%)” and at least 75%.
With `COc1cc(O)cc2c1[C@]1(C)CC[C@H]3C(C)(C)CCC[C@]3(C)[C@H]1CS2(=O)=O` [compound 57, (1R,10R,11S,16S)-5-hydroxy-3-methoxy-1,11,15,15-tetramethyl-8λ^6-thiatetracyclo[8.8.0.0^2,7.0^11,16]octadeca-2,4,6-triene-8,8-dione], the “Scoring: percent (%) activation” value at His-hSHIP1 enzyme is listed as “+ (<50%)”. Also, the inhibition at 30 µM with OPM2 cells is at least 75%.
For the compound `COc1cc(OC)c2c(c1N)S(=O)(=O)C[C@@H]1[C@@]3(C)CCCC(C)(C)[C@@H]3CC[C@@]21C` [compound 112, (1R,10R,11S,16S)-6-amino-3,5-dimethoxy-1,11,15,15-tetramethyl-8^6-thiatetracyclo[8.8.0.0^2,7.0^11,16]octadeca-2,4,6-triene-8,8-dione], in the assay on OPM2 cells, the inhibition at 30 µM was at least 75%.
On the same count and under the same terms, next, `COc1cc(OCC(=O)N2CCOCC2)cc2c1[C@]1(C)CC[C@H]3C(C)(C)CCC[C@]3(C)[C@H]1CS2(=O)=O` [compound 110, (1R,10R,11S,16S)-3-methoxy-1,11,15,15-tetramethyl-5-[2-(morpholin-4-yl)-2-oxoethoxy]-8^6-thiatetracyclo[8.8.0.0^2,7.0^11,16]octadeca-2,4,6-triene-8,8-dione]: below 25%.
For `CNC(=O)c1cc(O)c2c(c1)S(=O)(=O)C[C@@H]1[C@@]3(C)CCCC(C)(C)[C@@H]3CC[C@@]21C` [Compound No. 62], the “Scoring: percent (%) activation” value on His-hSHIP1 enzyme is given as “++ (≧50% but <65%)”. Also, in the assay with OPM2 cells, the inhibition at 30 µM was in the range of 25 to 75%.
The corresponding values for `CC1(C)CCC[C@]2(C)[C@H]3CS(=O)(=O)c4cc(C(=O)N5CCOCC5)cc(O)c4[C@]3(C)CC[C@@H]12` [compound 87, (1R,10R,11S,16S)-3-hydroxy-1,11,15,15-tetramethyl-5-[(morpholin-4-yl)-carbonyl]-8λ^6-thiatetracyclo[8.8.0.0^2,7.0^11,16]-octadeca-2,4,6-triene-8,8-dione] are “++ (≧50% but <65%)” and 25 to 75%.
As to `CNC(=O)c1cc(OC)c2c(c1)S(=O)(=O)C[C@@H]1[C@@]3(C)CCCC(C)(C)[C@@H]3CC[C@@]21C` [compound 81, (1R,10R,11S,16S)-3-methoxy-N,1,11,15,15-pentamethyl-8,8-dioxo-8λ^6-thiatetracyclo[8.8.0.0^2,7.0^11,16]octadeca-2,4,6-triene-5-carboxamide], at His-hSHIP1 enzyme, the “Scoring: percent (%) activation” value is “+ (<50%)”. Besides, in the assay on OPM2 cells, the inhibition at 30 µM fell in the range of 25 to 75%.
Consider `CC1(C)CCC[C@]2(C)[C@H]3CS(=O)(=O)c4cc(OCC(=O)O)cc(OCC(=O)O)c4[C@]3(C)CC[C@@H]12` [compound 108, 2-{[(1R,10R,11S,16S)-3-(carboxymethoxy)-1,11,15,15-tetramethyl-8,8-dioxo-8^6-thiatetracyclo[8.8.0.0^2,7.0^11,16]octadeca-2,4,6-trien-5-yl]oxy}acetic acid], for which the inhibition at 30 µM in the assay on OPM2 cells is below 25%.
Turning to `CN1CCN(C(=O)c2cc(O)c3c(c2)S(=O)(=O)C[C@@H]2[C@@]4(C)CCCC(C)(C)[C@@H]4CC[C@@]32C)CC1` [compound 89, (1R,10R,11S,16S)-3-hydroxy-1,11,15,15-tetramethyl-5-[(4-methylpiperazin-1-yl)-carbonyl]-8λ^6-thiatetracyclo[8.8.0.0^2,7.0^11,16]octadeca-2,4,6-triene-8,8-dione], on His-hSHIP1 enzyme, the “Scoring: percent (%) activation” value is listed as “+ (<50%)”. Besides, in the assay with OPM2 cells, the inhibition at 30 µM was at least 75%.

The values above are taken from patent publication US8101605B2, “SHIP1 modulators and methods related thereto” (Aquinox Pharmaceuticals Inc., priority 2009, dated 2012).
